Results from patent US20200055871A1, “ACTIVATORS OF THE RETINOIC ACID INDUCIBLE GENE "RIG-I" PATHWAY AND METHODS OF USE THEREOF” (Kineta Immuno-Oncology LLC, priority 2018, published 2020).

Experiments:
[1] = tested on: murine CT26 colon carcinoma cells; test: RIG-I dependent CXCL10 secretion by CT26 cells (ELISA); type: cell-based; details: supernatant 24 h after stimulation
Method in brief: (§1)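 CT26 murine colon carcinoma cells, parental or CRISPR RIG-I−/−, seeded and grown 24 hr at 37° C, then treated with compounds at 10 μM, or at 5 or 20 μM for some. Secreted CXCL10 measured by ELISA in supernatants 24 h after treatment and reported in pg/mL bands.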

[2] = tested on: IRF3-deficient THP1-Lucia™ ISG IRF3−/− cells; test: THP1-Lucia ISG IRF3−/− reporter assay (IRF3-deficient control cells); type: cell-based, human; details: compound 5 to 20 μM, 18 h
Procedure: The promoter was comprised of five IFN-stimulated response elements (ISRE) fused to an ISG54 minimal promoter which is unresponsive to NF-kB or AP-1 pathways. […] The IRF3-deficient THP1-Lucia™ ISG IRF3−/−reporter cell line was generated by CRISPR technology from the parent THP1-Lucia™ ISG reporter cell line.
THP1-Lucia™ ISG cells and IRF3-deficient THP1-Lucia™ ISG IRF3−/−cells were differentiated with PMA (100 ng/ml) and stimulated with compounds at the indicated concentrations (5 to 20 μM), positive control, or not treated (background). Luciferase secretion was quantified using the QUANTI-Luc luciferase assay system (InvivoGen) 18 h after stimulation. Data are shown as fold increase luciferase activity over background in Table 7 and represent the IRF3-dependent ISG54 promoter activity by the THP1-Lucia™ ISG cells in response to compounds. […] The fold increase of compounds (10 μM, *20 μM, **5 μM) induced IRF3 dependent luciferase activity is indicated as follows: “≠” indicates less than 2.4 fold increase; “+” indicates a 2.4-4.9 fold increase; “++” indicates a 5-9.9 fold increase; “+++” indicates a 10-19 fold increase; “++++” indicates a 20-39 fold increase; “+++++” indicates greater than or equal to 40 fold increase.

[3] = tested on: IRF3 signaling pathway in THP1-Lucia™ ISG cells; test: THP1-Lucia ISG reporter assay: induction of IRF3-dependent gene expression (secreted luciferase); type: cell-based, human; details: PMA-differentiated cells, 18 h after stimulation
Method in brief: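 PMA-differentiated THP-1 reporter cells (ISRE/ISG54 promoter driving secreted luciferase), plus CRISPR IRF3−/− line, treated with compounds at 5–20 μM (mostly 10 μM). Luciferase measured 18 h later; values are fold increase over untreated background, binned from <2.4 to ≥40.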

[4] = tested on: RIG-I deficient CT26 RIG-I−/− cells; test: CXCL10 secretion by RIG-I deficient CT26 RIG-I−/− cells (ELISA); type: cell-based, murine; details: compound 5 to 20 μM, 24 h; note: key: −: about 0 pg/mL of CXCL10, or below the level of quantitation
Method in brief: as §1

SMILES	CXCL10 secretion, CT26 ([1]; 20 μM compound (*))	fold increase of luciferase activity, THP1 ISG IRF3−/− [2]	fold increase of IRF3-dependent luciferase activity over background, THP1 ISG ([3]; 20 μM compound (*))	CXCL10 secretion, CT26 RIG-I−/− [4]	CXCL10 secretion, CT26 ([1]; 10 μM compound)	fold increase of IRF3-dependent luciferase activity over background, THP1 ISG ([3]; 10 μM compound)
O=C(Nc1nc2c(ccc3scnc32)[nH]1)c1ccc2ccccc2c1 [Example 48, N-{5-thia-3,10,12-triazatricyclo[7.3.0.0^2,^6]dodeca-1,3,6,8,11-pentaen-11-yl}naphthalene-2-carboxamide]	++++* (800 to 1599 pg/mL)	− (less than 0.5 fold above baseline was considered below the level of quantitation)	++* (a 5-9.9 fold increase)	−		
O=C(Nc1nc2ccc3sccc3c2s1)c1cc2ccccc2cc1OCCCCN1CCOCC1 [Example 49, N-{3,10-dithia-5-azatricyclo[7.3.0.0^2,^6]dodeca-1,4,6,8,11-pentaen-4-yl}-3-[4-(morpholin-4-yl)butoxy]naphthalene-2-carboxamide]		− (less than 0.5 fold above baseline was considered below the level of quantitation)		−	++++ (800 to 1599 pg/mL)	+++ (a 10-19 fold increase)
O=C(Nc1nc2ccc3occc3c2s1)c1cc2ccccc2cc1OCCCCN1CCOCC1 [Example 50, 3-[4-(morpholin-4-yl)butoxy]-N-{10-oxa-3-thia-5-azatricyclo[7.3.0.0^2,^6]dodeca-1,4,6,8,11-pentaen-4-yl}naphthalene-2-carboxamide]		− (less than 0.5 fold above baseline was considered below the level of quantitation)		−	++ (200-399 pg/mL)	+++ (a 10-19 fold increase)
O=C(Nc1nc2ccc3occc3c2s1)c1cc2ccccc2cc1OCCN1CCOCC1 [Example 51, 3-[2-(morpholin-4-yl)ethoxy]-N-{10-oxa-3-thia-5-azatricyclo[7.3.0.0^2,^6]dodeca-1,4,6,8,11-pentaen-4-yl}naphthalene-2-carboxamide]		− (less than 0.5 fold above baseline was considered below the level of quantitation)		−	+++ (400-799 pg/mL)	+++ (a 10-19 fold increase)
O=C(Nc1nc2ccc3ocnc3c2s1)c1cc2ccccc2cc1OCCN1CCOCC1 [Example 52, 3-[2-(morpholin-4-yl)ethoxy]-N-{10-oxa-3-thia-5,12-diazatricyclo[7.3.0.0^2,^6]dodeca-1,4,6,8,11-pentaen-4-yl}naphthalene-2-carboxamide]		− (less than 0.5 fold above baseline was considered below the level of quantitation)		−	+ (100-199 pg/mL)	+ (a 2.4-4.9 fold increase)
O=C(Nc1nc2ccc3ocnc3c2s1)c1cc2ccccc2cc1OCCCCN1CCOCC1 [Example 53, 3-[4-(morpholin-4-yl)butoxy]-N-{10-oxa-3-thia-5,12-diazatricyclo [7.3.0.0^2,^6]dodeca-1,4,6,8,11-pentaen-4-yl}naphthalene-2-carboxamide]		− (less than 0.5 fold above baseline was considered below the level of quantitation)		−	+++++ (greater than or equal to 1600 pg/ml)	++ (a 5-9.9 fold increase)
O=C(Nc1cc2ccc3scnc3c2s1)c1cc2ccccc2cc1OCCCCN1CCOCC1 [Example 54, N-{5,12-dithia-3-azatricyclo[7.3.0.0^2,^6]dodeca-1,3,6,8,10-pentaen-11-yl}-3-[4-(morpholin-4-yl)butoxy]naphthalene-2-carboxamide]		− (less than 0.5 fold above baseline was considered below the level of quantitation)		−	++++ (800 to 1599 pg/mL)	+++ (a 10-19 fold increase)
O=C(Nc1cc2ccc3scnc3c2s1)c1cc2ccccc2cc1OCCN1CCOCC1 [Example 55, N-{5,12-dithia-3-azatricyclo[7.3.0.0^2,^6]dodeca-1,3,6,8,10-pentaen-11-yl}-3-[2-(morpholin-4-yl)ethoxy]naphthalene-2-carboxamide]		− (less than 0.5 fold above baseline was considered below the level of quantitation)		−	≠ (less than 100 pg/mL)	+++ (a 10-19 fold increase)
O=C(Nc1cc2ccc3scnc3c2o1)c1cc2ccccc2cc1OCCCCN1CCOCC1 [Example 56, 3-[4-(morpholin-4-yl)butoxy]-N-{12-oxa-5-thia-3-azatricyclo [7.3.0.0^2,^6]dodeca-1,3,6,8,10-pentaen-11-yl}naphthalene-2-carboxamide]		− (less than 0.5 fold above baseline was considered below the level of quantitation)		−	+++ (400-799 pg/mL)	+ (a 2.4-4.9 fold increase)
O=C(Nc1cc2ccc3scnc3c2o1)c1cc2ccccc2cc1OCCN1CCOCC1 [Example 57, 3-[2-(morpholin-4-yl)ethoxy]-N-{12-oxa-5-thia-3-azatricyclo [7.3.0.0^2,^6]dodeca-1,3,6,8,10-pentaen-11-yl}naphthalene-2-carboxamide]	++* (200-399 pg/mL)	− (less than 0.5 fold above baseline was considered below the level of quantitation)		−		+++ (a 10-19 fold increase)
O=C(Nc1nc2ccc3scnc3c2o1)c1cc2ccccc2cc1OCCN1CCOCC1 [Example 58, 3-[2-(morpholin-4-yl)ethoxy]-N-{3-oxa-10-thia-5,12-diazatricyclo [7.3.0.0^2,^6]dodeca-1,4,6,8,11-pentaen-4-yl}naphthalene-2-carboxamide]		− (less than 0.5 fold above baseline was considered below the level of quantitation)		−	+ (100-199 pg/mL)	+ (a 2.4-4.9 fold increase)
O=C(Nc1nc2ccc3scnc3c2o1)c1cc2ccccc2cc1OCCCCN1CCOCC1 [Example 59, 3-[4-(morpholin-4-yl)butoxy]-N-{3-oxa-10-thia-5,12-diazatricyclo [7.3.0.0^2,^6]dodeca-1,4,6,8,11-pentaen-4-yl}naphthalene-2-carboxamide]		− (less than 0.5 fold above baseline was considered below the level of quantitation)		−	+++++ (greater than or equal to 1600 pg/ml)	++ (a 5-9.9 fold increase)
Cn1c(C(=O)Nc2cc3ccc4scnc4c3s2)cc2ccccc21 [Example 60, N-{5,12-dithia-3-azatricyclo[7.3.0.0^2,^6]dodeca-1,3,6,8,10-pentaen-11-yl}-1-methyl-1H-indole-2-carboxamide]	+* (100-199 pg/mL)	− (less than 0.5 fold above baseline was considered below the level of quantitation)	+* (a 2.4-4.9 fold increase)	−		
